Target: T1, Avian myoblastosis virus polyprotein II (Avian myeloblastosis virus, UniProt Q86831)
T1 sequence (Q86831 whole entry): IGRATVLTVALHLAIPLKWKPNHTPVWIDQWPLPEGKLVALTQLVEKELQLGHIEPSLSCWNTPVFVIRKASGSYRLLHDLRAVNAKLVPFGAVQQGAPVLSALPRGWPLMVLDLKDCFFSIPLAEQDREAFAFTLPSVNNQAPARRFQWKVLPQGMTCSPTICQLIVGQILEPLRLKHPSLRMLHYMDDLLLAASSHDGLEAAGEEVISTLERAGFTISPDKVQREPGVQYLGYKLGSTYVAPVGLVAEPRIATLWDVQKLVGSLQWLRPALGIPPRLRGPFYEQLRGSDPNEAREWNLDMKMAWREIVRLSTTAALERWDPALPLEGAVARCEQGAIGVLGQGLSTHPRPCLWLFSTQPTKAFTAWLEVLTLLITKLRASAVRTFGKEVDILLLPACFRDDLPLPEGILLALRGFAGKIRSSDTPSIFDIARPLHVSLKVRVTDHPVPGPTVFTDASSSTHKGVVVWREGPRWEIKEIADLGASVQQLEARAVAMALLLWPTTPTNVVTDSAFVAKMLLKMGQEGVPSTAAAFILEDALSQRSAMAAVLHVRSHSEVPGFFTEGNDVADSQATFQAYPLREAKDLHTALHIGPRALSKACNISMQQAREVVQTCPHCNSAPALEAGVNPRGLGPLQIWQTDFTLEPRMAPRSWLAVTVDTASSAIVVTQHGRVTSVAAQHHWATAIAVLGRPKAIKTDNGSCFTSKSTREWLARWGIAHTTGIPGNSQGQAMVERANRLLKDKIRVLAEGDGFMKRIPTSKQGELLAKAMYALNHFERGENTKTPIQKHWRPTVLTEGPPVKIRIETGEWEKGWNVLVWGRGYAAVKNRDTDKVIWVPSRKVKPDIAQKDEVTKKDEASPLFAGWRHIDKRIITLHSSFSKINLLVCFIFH
Test: Inhibitor of avian myeloblastosis virus AMV reverse transcriptase

| SMILES | IC50 |
| --- | --- |
| Nc1nc(O)c2ncn(C3O[C@H](COP(=O)(O)C(F)(F)F)[C@@H](O)[C@H]3O)c2n1 (stereo not given in full) | 145 µM |
| Cc1cn(C2C=CC(COP(=O)(O)CF)O2)c(=O)[nH]c1=O (stereo not given) | 281 µM |
| Cc1cn(C2CC(N=[N+]=[N-])C(COP(=O)(O)CF)O2)c(=O)[nH]c1=O (stereo not given) | 127 µM |
| Cc1cn(C2CC(N=[N+]=[N-])C(COP(=O)(O)C(F)(F)F)O2)c(=O)[nH]c1=O (stereo not given) | 37.6 µM |
| Cc1cn(C2CC(N=[N+]=[N-])C(COP(=O)(O)C(F)F)O2)c(=O)[nH]c1=O (stereo not given) | 118 µM |
| Cc1cn(C2C=CC(COP(=O)(O)C(F)F)O2)c(=O)[nH]c1=O (stereo not given) | 887 µM |
| O=c1[nH]c(=O)n([C@H]2C[C@H](O)[C@@H](COP(=O)(O)C(F)(F)F)O2)cc1F | 82 µM |
| O=c1[nH]c(=O)n([C@H]2C[C@H](O)[C@@H](COP(=O)(O)C(F)F)O2)cc1F | 375 µM |
| Cc1cn(C2C=CC(COP(=O)(O)C(F)(F)F)O2)c(=O)[nH]c1=O (stereo not given) | 842 µM |
| Nc1ccn(C2O[C@H](COP(=O)(O)C(F)F)[C@@H](O)[C@H]2O)c(=O)n1 (stereo not given in full) | 171 µM |

— ChEMBL document CHEMBL1126397, “Synthesis of acid stable 5-o-fluoromethyl phosphonates of nucleosides. Evaluation as inhibitors of reverse transcriptase” (Bioorg Med Chem Lett, 1992)
